DC50 and IC50 data for two compounds are collected here from patent US20240269298A1, “PHOSPHONYL DERIVATIVE, AND COMPOSITION AND PHARMACEUTICAL APPLICATION THEREOF” (XIZANG HAISCO PHARMACEUTICAL CO., LTD., priority 2021, published 2024).

Broadly, the DC50 is the concentration at which degradation of the target reaches its halfway point. The term IC50 denotes the concentration needed to halve the response being measured.

What all share (assay type): cell-based
Experiment [1] has as its target T1, EGFR protein in NCI-H1975 EGFR-L858R-T790M-C797S cells (Homo sapiens, UniProt P00533, C797S/L858R/T790M).
T1 construct: expressed in transfected cells; host or cells: NCI-H1975 EGFR-L858R-T790M-C797S (kept under hygromycin selection)
The experiment is described as follows: Degradation activity on EGFR protein in NCI-H1975 EGFR-L858R-T790M-C797S cells, Method II (western blot, 48 h). As to conditions: 48 h incubation, EGFR protein relative to DMSO control. The procedure:
Protein sample preparation: NCI-H1975 EGFR-L858R-T790M-C797S cells were cultured in an incubator at 37° C. with 5% CO2, and the culture medium was RPMI1640+10% FBS+100 μg/mL hygromycin. The cells in the logarithmic phase were collected, and the cell suspension was adjusted to an appropriate concentration with a hygromycin-free culture medium, plated on a 6-well plate at a density of 350000 cells/well and a volume of 2 mL, and cultured overnight in an incubator at 37° C. with 5% CO2. The next day, the compounds at different concentrations were added. DMSO control wells were provided, wherein the concentration of DMSO in all wells was 0.1%. The 6-well plate was cultured in an incubator at 37° C. with 5% CO2 for 48 h, and then 30 μL of RIPA lysates (Beyotime, Cat. P0013B) containing protease inhibitors (Beyotime, Cat. P0013B) were added. The mixtures were lysed on ice for 30 min. Centrifugation was carried out at 13000 rpm/min at 4° C. for 20 minutes to collect protein supernatant samples, and protein quantification was performed by the BCA method. Western Blot detection samples were prepared.
Western blot detection: 20 μg of protein samples were added to each well, subjected to polyacrylamide gel electrophoresis and transferred to a membrane, and then diluted anti-EGFR (CST, Cat. 4267S) and […] (Kangchen, Cat. KC-5G4) antibodies were added and incubated overnight at 4° C. After washing the membrane, diluted goat anti-rabbit (Licor, Cat. 926-32211) and goat anti-mouse (Licor, Cat. 926-68070) antibodies were added and incubated in the dark for 45 min. Scanning and detection at wavelengths of 700 nm and 800 nm were performed with a far-infrared imaging system (Odyssey).
According to formula (3), the expression level of EGFR protein in the cells relative to the DMSO control group was calculated after incubation with different concentrations of compounds. wherein EGFRcompound was the fluorescence value of EGFR protein after incubation with compounds, and EGFRvehicle was the fluorescence value of EGFR protein in the DMSO control group. Using the Origin 9.2 software, the drug concentration DC50 values when the expression level of EGFR protein was 50% relative to the DMSO control group were calculated.
Background: Immunoblotting shows a protein as a band on a membrane.

Experiment [2] deals with A431 (EGFR-WT) cells. The experiment can be described thus: Inhibitory activity on proliferation of A431 (EGFR-WT) cells (CTG, 72 h). As to conditions: Homo sapiens, A-431. A digest of the protocol:
(§1)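 IC50 values come from S-shaped dose-survival fits of CTG signal expressed as % of vehicle. Compound exposure lasted 72 h at 37 °C with 0.1% DMSO; seeding was 3000 A431 cells/well in DMEM+10% FBS and 1000 NCI-H1975 cells/well in RPMI1640+10% FBS.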

Experiment [3] deals with Ba/F3-TEL-EGFR-T790M-L858R-C797S cells. The experiment can be described thus: Inhibitory activity on proliferation of Ba/F3-TEL-EGFR-T790M-L858R-C797S cells (CellTiter-Glo, 72 h). The procedure: Ba/F3-TEL-EGFR-T790M-L858R-C797S cells were cultured in an incubator at 37° C. with 5% CO2. The cells in the logarithmic phase were collected, counted and plated in a 96-well plate at a density of 2000 cells/well. The compounds at different concentrations were added, and a vehicle control group (cells plus DMSO) and a blank control group (cell culture mediums plus DMSO) were provided, wherein the concentration of DMSO was both 0.1%. The cell culture plate was cultured in an incubator at 37° C. with 5% CO2 for 72 hours. After the incubation was completed, the cell culture plate was removed and allowed to equilibrate to room temperature for 10 min. […] The plate was placed at room temperature for 10 min, and then […] signal values were measured using a microplate reader (SpectraMax Paradigm). […] The inhibition rates corresponding to different concentrations of compounds were calculated, and using the GraphPad Prism software, the inhibition rate curves were plotted, and IC50 values were calculated. wherein RLUDrug was the readout of the drug-treated group, RLUMax was the readout of the control group, and RLUMin was the readout of the blank group.

In experiment [4] the test system is NCI-H1975 (EGFR-L858R-T790M) cells. The experiment is described as follows: Inhibitory activity on proliferation of NCI-H1975 (EGFR-L858R-T790M) cells (CTG, 72 h). The note with it: Homo sapiens. A digest of the protocol:
as §1

The mark [5] stands for this setting: read-out: IC50 (value in brackets).

Like-named read-outs stand apart in the source and are kept apart here. Bounds are passed on as bounds.

T1 sequence (P00533 25-1210 T790M/C797S/L858R): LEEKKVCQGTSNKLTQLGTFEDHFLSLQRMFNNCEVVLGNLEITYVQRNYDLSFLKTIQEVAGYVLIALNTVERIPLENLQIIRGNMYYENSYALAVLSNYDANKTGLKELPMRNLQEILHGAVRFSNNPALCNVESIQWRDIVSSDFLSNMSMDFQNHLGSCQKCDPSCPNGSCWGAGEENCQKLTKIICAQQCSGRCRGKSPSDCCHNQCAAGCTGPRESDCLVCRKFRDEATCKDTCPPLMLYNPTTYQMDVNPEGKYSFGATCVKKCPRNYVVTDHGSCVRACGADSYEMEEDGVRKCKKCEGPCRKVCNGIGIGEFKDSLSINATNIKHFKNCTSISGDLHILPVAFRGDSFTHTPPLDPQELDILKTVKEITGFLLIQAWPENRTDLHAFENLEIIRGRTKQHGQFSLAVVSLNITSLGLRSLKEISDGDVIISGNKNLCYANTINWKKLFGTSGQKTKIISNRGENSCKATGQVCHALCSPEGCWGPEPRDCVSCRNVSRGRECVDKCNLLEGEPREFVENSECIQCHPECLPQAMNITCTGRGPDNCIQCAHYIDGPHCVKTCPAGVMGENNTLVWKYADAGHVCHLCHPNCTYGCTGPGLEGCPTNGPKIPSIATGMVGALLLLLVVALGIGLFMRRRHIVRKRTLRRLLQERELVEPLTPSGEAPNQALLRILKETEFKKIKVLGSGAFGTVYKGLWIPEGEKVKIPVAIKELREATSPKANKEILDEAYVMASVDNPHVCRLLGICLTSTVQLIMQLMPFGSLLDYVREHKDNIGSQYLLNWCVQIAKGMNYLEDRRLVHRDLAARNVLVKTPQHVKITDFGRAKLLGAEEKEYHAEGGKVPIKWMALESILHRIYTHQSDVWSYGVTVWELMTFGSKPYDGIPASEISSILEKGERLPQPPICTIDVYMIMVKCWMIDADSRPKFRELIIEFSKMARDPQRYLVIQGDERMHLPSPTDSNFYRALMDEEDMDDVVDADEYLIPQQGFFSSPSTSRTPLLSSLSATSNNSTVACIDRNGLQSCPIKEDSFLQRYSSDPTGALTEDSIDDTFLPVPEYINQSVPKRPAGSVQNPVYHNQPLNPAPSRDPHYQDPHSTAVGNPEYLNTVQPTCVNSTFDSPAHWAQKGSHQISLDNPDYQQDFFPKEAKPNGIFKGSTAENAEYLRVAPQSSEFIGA

As to `COc1cc(N2CCC(CN3CCN(c4ccc5c(c4)C(=O)N(C4CCC(=O)NC4=O)C5=O)CC3)CC2)c(-c2cnn(C)c2)cc1Nc1ncc(Br)c(Nc2ccc(C3CC3)cc2P(C)(C)=O)n1` (stereo not shown) [Compound 106, 5-(4-((1-(4-((5-bromo-4-((4-cyclopropyl-2-(dimethylphosphoryl)phenyl)amino)pyrimidin-2-yl)amino)-5-methoxy-2-(1-methyl-1H-pyrazol-4-yl)phenyl)piperidin-4-yl)methyl)piperazin-1-yl)-2-(2,6-dioxopiperidin-3-yl)isoindoline-1,3-dione], in experiment [1], the DC50 was < 100 nM. The IC50 in experiment [2] was ≥ 10000 nM; in experiment [3] it was 15.6 nM; in experiment [4] (read-out: IC50 (class symbol)), < 100 nM; in experiment [4] (setting [5]), 54 nM.

Take `COc1cc(N2CCC(CN3CCN(c4ccc5c(c4)C(=O)N(C4CCC(=O)NC4=O)C5=O)CC3)CC2)c(-c2cnn(C)c2)cc1Nc1ncc(Cl)c(Nc2ccc(C3CC3)cc2P(C)(C)=O)n1` (stereo not shown) [Compound 107, 5-(4-((1-(4-((5-chloro-4-((4-cyclopropyl-2-(dimethylphosphoryl)phenyl)amino)pyrimidin-2-yl)amino)-5-methoxy-2-(1-methyl-1H-pyrazol-4-yl)phenyl)piperidin-4-yl)methyl)piperazin-1-yl)-2-(2,6-dioxopiperidin-3-yl)isoindoline-1,3-dione]: the DC50 in experiment [1] is < 100 nM. The IC50 was ≥ 10000 nM in experiment [2], 15.6 nM in experiment [3], < 100 nM in experiment [4] (read-out: IC50 (class symbol)) and 56 nM in experiment [4] (setting [5]).
